Results taken from patent publication US10322187B2, “Reduced toxicity molecular conjugates of anti-fungal agents” (Lehigh University, priority 2015, dated 2019).
Converted amounts (≈) assume the structure as drawn. “Also recorded” adds a separate entry of the source. Like-named read-outs stand apart in the source and are kept apart here.

Legend:
[1] = Critical aggregation concentration (CAC) by UV absorptivity; assay type: physicochemical; settings: PBS, 37° C., absorptivity at 409 nm
From the text: If one lets: (i) T, m, and P represent the total, the monomeric, and the aggregate concentrations of this macrolide, respectively; (ii) ε represent the apparent molar absorptivity; and (iii) εm and εp represent the molar absorptivity for the monomeric and aggregate components, respectively, then it can be shown that ε=εp+(εm−εp)m/T. See Yamashita K, Janout V, Bernard E M, Armstrong D, and Regen, S L. Micelle/monomer control over the membrane disrupting properties of an amphiphilic antibiotic. J. Am. Chem. Soc. 117 (1995) 6249-6253. At concentrations that are in excess of its CAC, m is constant, and ε is expected to be inversely proportional to T. Thus, by measuring the apparent molar absorptivity as a function of the reciprocal of the concentration of VJ-1138, its CAC value is estimated to be 0.9 μM (from the intercept of two straight lines).
Determination of Critical Aggregation Concentration (CAC) of AmphB and molecular conjugates. Solutions of AmphB and molecular conjugates in DMSO (Sigma-Aldrich) were prepared having a concentration of 1.00 mM. […] The UV spectrum was then recorded in the range of 250-550 nm. The absorbance at 408 nm was plotted as a function of the reciprocal value of the concentration of AmB and the critical aggregation concentration of the molecular conjugates was then determined, graphically.

HEK293T cells = experiment: Inhibition of cell growth, MTT cell viability; assay type: cell-based, human; settings: 1, 10, 50, and 100 μM; FIG. 4
Procedure: Human embryonic kidney HEK293 cells were cultured in Dulbecco's modified Eagle's medium (DMEM supplemented with 10% FBS, 100 U/mL penicillin, and 0.1 mg/mL SI-10 streptomycin) in a humidified atmosphere of 5% CO2 at 37° C.
HEK293T cells were seeded in 96-well plates at a density of 6,000 cells/well and incubated overnight. Before treatment, compounds aliquots were solubilized in DMSO to obtain 10 mM stock solutions. Appropriate volumes of these stock solutions were added to DMEM media so the final concentration of DMSO is equal to 1%. After removal of cell media, 50 μL of treatment solutions were added to each well and incubated at 37° C. for 2 h. After treatment, the media was removed, and 100 μL of complete medium was added to each well before returning the plate to the incubator. Cell viability was determined after 72 h using the colorimetric MTT assay. Briefly, 10 μL of a 5 mg/mL MTT stock solution was added to the treated cells and incubated for 2 h at 37° C. The resulting formazan crystals were solubilized in 200 μL of DMSO, and the absorbance was measured at 580 nm using an Infinite 200 PRO microplate reader (Tecan). Cell viability was calculated against control cells treated with the vehicle in DMEM.

C. albicans = experiment: Antifungal activities, MIC/MFC; assay type: cell-based; settings: C. albicans
Procedure: (§1) A similar sequence of reactions was carried out using lysine dicholamide in place of cholic acid afforded VJ-1147 of Table 2. To assess the antifungal properties of the diwalled VJ-1138 (Table 2) and 2a of Table 3, their in vitro activities were examined against four clinically relevant microbes, i.e., C. albicans, C. glabrata, C. neoformans, and C. gatti (Table 4).
(§2) Minimum inhibitory concentrations (MIC) and minimum fungicidal concentrations (MFC) are the lowest concentrations that are required for completely inhibiting growth, and killing at least 99% of the fungi, respectively.
(§3) The above molecules were tested for antifungal activity. Minimum inhibitory concentrations (MIC) and minimum fungicidal concentrations (MFC) are the lowest concentrations that are required for completely inhibiting growth, and killing at least 99% of the fungi, respectively. As is apparent from Table 4 below, there is a general trend; i.e., increased antifungal activity is observed as the length of the hydrocarbon chain that separates the facial amphiphile from the Amphotericin B moiety is decreased.

C. glabrata = experiment: Antifungal activities, MIC/MFC; assay type: cell-based; settings: C. glabrata
Procedure: as §1, §2, §3

C. neoformans = experiment: Antifungal activities, MIC/MFC; assay type: cell-based; settings: C. neoformans
Procedure: as §1, §2, §3

C. gatti = experiment: Antifungal activities, MIC/MFC; assay type: cell-based; settings: C. gatti
Procedure: as §1, §2, §3

Cryptococcus neoformans = experiment: Cryptococcosis mouse model, brain and lung tissue burden; assay type: in vivo, mice
Procedure: Cryptococcosis mice are infected via tail vein injection of 5×10^4 C. neoformans cells. Inocula are verified by quantitative culture. Animals are identified by temporary ink marking, assigned to groups of 10 mice. Test compounds will be dosed starting on the day of infection. Initial studies will employ i.v., i.p. or oral (gavage) dosing (depending on the compound and the vehicle). Antifungal compounds are given for a period of 7 days. […] On day 8, the lung and brain are evaluated by quantitative culture per gram of tissue, by weighing organs and culturing serially diluted homogenates. These tissue burden studies permit detection of drug efficacy that may not be evident by using a survival endpoint.
The mice were then sacrificed 7 days later for quantitative culture of brain and lung, with cryptococcal cells per gram tissue being expressed as logarithmic values (log 10). Mean values for each group were compared using the t-test.

sheep red blood cells = experiment: Hemolysis measurements, release of hemoglobin; assay type: cell-based
Procedure: Sheep Red Blood Cells, 10%, in saline (Innovative Research, Novi, Mich.), were diluted in saline (pH 7.4) to a concentration of 4%, which corresponds to 4×10^7 cells/mL. All measurements were carried out in duplicate. Solutions of Amphotericin B (Sigma-Aldrich) were prepared by adding 10 μL of a DMSO solution containing a given concentration of the antibiotic (i.e., ranging from 0.2 mM to 50 mM) to 490 μL of PBS. After the resulting solution was vortex mixed for 30 seconds (s) it was incubated at 37° C. for 15 min. The resulting solution of antibiotic (500 μL) was then mixed with 500 μL of the 4% erythrocyte dispersion at 37° C. in a 1 mL plastic centrifuge vial to give a dispersion that was vortex mixed at slow rate for 5 s. After 1 h of incubation at 37° C., all samples were centrifuged (1500 g, Eppendorf centrifuge 5415C, 5000 rpm) at rt for 5 min. The supernatant (˜0.7 mL) from each plastic vial was carefully separated from sediment using a disposable glass pipette and quickly transferred to test tube. A volume of 50 μL of this supernatant was then transferred to a UV cell containing 500 μL of PBS that was maintained at 37° C. The UV spectrum was then scanned (450-650 nm) and the absorbance at 575 nm used to determine the extent of hemolysis. The extent of 0% and 100% of hemolysis was obtained from A575 values of experiments that were run in absence of AmphB (control, [A575,]o) and in presence, 100 μM AmphB ([A575]max), respectively.

[2] = system: C. albicans, C. glabrata, C. neoformans, and C. gatti; experiment: In vitro antifungal activity, general statements on the four microbes; assay type: cell-based; settings: on a molar basis
Procedure: as §1, §2

[3] = t-test, 70 mg/kg/day intraperitoneal

Q: With CC1OC(O[C@H]2/C=C/C=C/C=C/C=C/C=C/C=C/C=C/[C@H](C)[C@@H](O)[C@@H](C)[C@H](C)OC(=O)C[C@H](O)C[C@H](O)CC[C@@H](O)[C@H](O)C[C@H](O)C[C@]3(O)C[C@H](O)[C@@H](C(=O)NCCCCCCCC(=O)N(CCCCNC(=O)CC[C@@H](C)C4CCC5C6C(O)CC7CC(O)CCC7(C)C6CC(O)C54C)CCCNC(=O)CC[C@@H](C)C4CCC5C6C(O)CC7CC(O)CCC7(C)C6CC(O)C54C)[C@H](C2)O3)C(O)C(N)C1O (stereo partly shown) [VJ-1138] as the compound, how does the “critical aggregation concentration (CAC)” value [1] read?
A: The value was 0.9 µM.

Q: And the “toxicity toward HEK293t cells compared with AmphB” value (HEK293T cells)?
A: The value was “dramatically reduced”.

Q: And the MIC (C. albicans; Table 2, 1st value in brackets, read-out: minimum inhibitory concentration (MIC))?
A: Its MIC is 2 µM (≈ 3.95 µg/mL).

Q: What about the MIC (C. albicans; first Table 4, lowest concentration completely inhibiting growth, read-out: MIC) of the same compound?
A: The MIC was 1 µM (≈ 1.97 µg/mL).

Q: And the MFC (C. albicans; first Table 4, lowest concentration killing at least 99% of the fungi, read-out: MFC)?
A: Its MFC is 2 µM (≈ 3.95 µg/mL).

Q: And the MIC (C. glabrata; Table 2, 2nd value in brackets, read-out: minimum inhibitory concentration (MIC))?
A: The MIC was 4 µM (≈ 7.89 µg/mL).

Q: And the MFC (C. glabrata; first Table 4)?
A: The MFC was 4 µM (≈ 7.89 µg/mL).

Q: And the MIC (C. glabrata; first Table 4, read-out: MIC)?
A: The MIC was 2 µM (≈ 3.95 µg/mL).

Q: And the MIC (C. neoformans; Table 2, 3rd value in brackets, read-out: minimum inhibitory concentration (MIC))?
A: The MIC was 2 µM (≈ 3.95 µg/mL).

Q: And the MFC (C. neoformans; first Table 4, read-out: MFC)?
A: The MFC was 2 µM (≈ 3.95 µg/mL).

Q: And the MIC (C. neoformans; first Table 4, read-out: MIC)?
A: The MIC was 1 µM (≈ 1.97 µg/mL).

Q: And the MIC (C. gatti; Table 2, 4th value in brackets, read-out: minimum inhibitory concentration (MIC))?
A: The MIC was 3 µM (≈ 5.92 µg/mL).

Q: What about the MFC (C. gatti; first Table 4, read-out: MFC) of the same compound?
A: Its MFC is 2 µM (≈ 3.95 µg/mL).

Q: And the MIC (C. gatti; first Table 4, read-out: MIC)?
A: The MIC was 1 µM (≈ 1.97 µg/mL).

Q: And the mean lung burden (Cryptococcus neoformans; CD1 male mice, intraperitoneal DMSO solution, 70 mg/kg/day, 7 days, untreated 6.34)?
A: The mean lung burden was 5.10 log 10 cryptococcal cells per.

Q: And the mean brain burden (Cryptococcus neoformans; CD1 male mice, intraperitoneal DMSO solution, 70 mg/kg/day, 7 days, untreated 8.22)?
A: The mean brain burden was 7.66 log 10 cryptococcal cells per.

Q: And the “p, brain tissue burden compared to untreated mice” value (Cryptococcus neoformans; [3])?
A: The value was 0.0083.

Q: What about the “p, lung tissue burden compared to untreated mice” value (Cryptococcus neoformans; [3]) of the same compound?
A: Its value is under 0.0001.

Q: And the “EH50 relative to AmphB” value (sheep red blood cells)?
A: Its value is “approximately 2 orders of magnitude”.

Q: And the “hemolytic activity relative to AmphB” value (sheep red blood cells)?
A: Its value is “dramatically reduced”.

Q: And the “EH50, concentration required to induce 50% release of hemoglobin from erythrocytes” value (sheep red blood cells; pH 7.4)?
A: Its value is 375 µM.

Q: What about the “antifungal potency compared with AmphB” value [2] of the same compound?
A: The value was “approaches that of the native antibiotic; also recorded: approaching that of AmphB”.
